Results reported in PubChem BioAssay AID330 (DTP/NCI, 2004).
Several values for one entry are separate records, joined by “and”; a condition that tells them apart may be missing. Identical values can stand only once. Inconclusive results and toxic doses are left out. Peptide text beside a SMILES is read from it. * marks the point of attachment. Cbz = O=C(OCc1ccccc1)*; Bn = c1ccc(C*)cc1

Test system: P388 leukemia ip, CD2F1 mice, survival T/C
Assay: NCI In Vivo Anticancer Drug Screen. Data for tumor model P388 Leukemia (intraperitoneal) in CD2F1 (CDF1) mice
Settings: endpoint: median survival time, higher = longer survival
In short: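 Mice carrying the transplanted tumor received test compound or vehicle. Survival was recorded in each group, and the value is the treated-group measurement divided by that of the vehicle-treated control group.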

[1] = dose: 60.0 mg/kg/injection, schedule: Q01DX005 (ip), vehicle: saline with Tween-80
[2] = dose: 100.0 mg/kg/injection, schedule: Q04DX003 (ip), vehicle: saline with Tween-80
[3] = dose: 200.0 mg/kg/injection, schedule: Q04DX003 (ip), vehicle: saline with Tween-80
[4] = dose: 15.0 mg/kg/injection, schedule: Q01DX005 (ip), vehicle: saline
[5] = dose: 30.0 mg/kg/injection, schedule: Q01DX005 (ip), vehicle: saline
[6] = dose: 60.0 mg/kg/injection, schedule: Q01DX005 (ip), vehicle: saline
[7] = dose: 50.0 mg/kg/injection, schedule: Q01DX005 (ip), vehicle: Klucel (hydroxypropylcellulose) (HPC)
[8] = dose: 100.0 mg/kg/injection, schedule: Q01DX005 (ip), vehicle: Klucel (hydroxypropylcellulose) (HPC)
[9] = dose: 200.0 mg/kg/injection, schedule: Q01DX005 (ip), vehicle: Klucel (hydroxypropylcellulose) (HPC)
[10] = dose: 120.0 mg/kg/injection, schedule: Q01DX005 (ip), vehicle: saline with Tween-80
[11] = dose: 240.0 mg/kg/injection, schedule: Q01DX005 (ip), vehicle: saline with Tween-80
[12] = dose: 50.0 mg/kg/injection, schedule: Q01DX009 (ip), vehicle: saline with Tween-80
[13] = dose: 100.0 mg/kg/injection, schedule: Q01DX009 (ip), vehicle: saline with Tween-80
[14] = dose: 200.0 mg/kg/injection, schedule: Q01DX009 (ip), vehicle: saline with Tween-80

Structure (SMILES): Fc1ccccc1C(Nc1nncs1)Nc1nncs1
- T/C (dose: 15.0 mg/kg/injection, schedule: Q01DX005 (ip), vehicle: saline with Tween-80): 95 % of control
- T/C (dose: 30.0 mg/kg/injection, schedule: Q01DX005 (ip), vehicle: saline with Tween-80): 94 % of control
- T/C [1]: 102 % of control and 104 % of control

Structure (SMILES): COC(=O)C(CSCc1ccccc1)NC(=O)C(CC(N)=O)NC(=O)OCc1ccccc1 (stereo not drawn) (Cbz-Asn-Cys(Bn)-OMe; configuration not given here)
- T/C (dose: 12.5 mg/kg/injection, schedule: Q01DX009 (ip), vehicle: distilled water + Tween-80): 88 % of control
- T/C (dose: 25.0 mg/kg/injection, schedule: Q01DX009 (ip), vehicle: distilled water + Tween-80): 88 % of control
- T/C (dose: 50.0 mg/kg/injection, schedule: Q01DX009 (ip), vehicle: distilled water + Tween-80): 91 % of control
- T/C (dose: 100.0 mg/kg/injection, schedule: Q01DX009 (ip), vehicle: distilled water + Tween-80): 92 % of control
- T/C (dose: 200.0 mg/kg/injection, schedule: Q01DX009 (ip), vehicle: distilled water + Tween-80): 103 % of control

Structure (SMILES): CCCCCCC1NC1Cc1ccccc1 (stereo not drawn)
- T/C (dose: 4.5 mg/kg/injection, schedule: Q01DX009 (ip), vehicle: saline with Tween-80): 115 % of control
- T/C (dose: 9.0 mg/kg/injection, schedule: Q01DX009 (ip), vehicle: saline with Tween-80): 111 % of control
- T/C (dose: 18.0 mg/kg/injection, schedule: Q01DX009 (ip), vehicle: saline with Tween-80): 110 % of control

Structure (SMILES): CN(C)CCNc1ccc(O)c2sc3ccccc3c(=O)c12
- T/C [2]: 94 % of control
- T/C [3]: 90 % of control

Structure (SMILES): O=C1OC(=O)C2C3C=CC(O3)C12 (stereo not drawn)
- T/C [4]: 100 % of control
- T/C [5]: 91 % of control
- T/C [6]: 87 % of control and 89 % of control

Structure (SMILES): O=C(NC1CCCCC1)O/N=C/c1ccccn1
- T/C (dose: 50.0 mg/kg/injection, schedule: Q01DX001 (ip), vehicle: other): 95 % of control
- T/C (dose: 100.0 mg/kg/injection, schedule: Q01DX001 (ip), vehicle: other): 95 % of control
- T/C (dose: 200.0 mg/kg/injection, schedule: Q01DX001 (ip), vehicle: other): 100 % of control

Structure (SMILES): COc1ccc2c(c1)C(=O)/C(=N\O)C2
- T/C [7]: 92 % of control
- T/C [8]: 101 % of control
- T/C [9]: 92 % of control

Structure (SMILES): CC(=S)N(c1ccccc1)c1ccccc1
- T/C (dose: 60.0 mg/kg/injection, schedule: Q01DX005 (ip), vehicle: Klucel (hydroxypropylcellulose) (HPC)): 101 % of control
- T/C (dose: 120.0 mg/kg/injection, schedule: Q01DX005 (ip), vehicle: Klucel (hydroxypropylcellulose) (HPC)): 96 % of control
- T/C (dose: 240.0 mg/kg/injection, schedule: Q01DX005 (ip), vehicle: Klucel (hydroxypropylcellulose) (HPC)): 93 % of control

Structure (SMILES): COc1cccc2c(NCCCCCCCCNc3c4ccc([N+](=O)[O-])cc4nc4c(OC)cccc34)c3ccc([N+](=O)[O-])cc3nc12
- T/C (dose: 2.5 mg/kg/injection, schedule: Q01DX009 (ip), vehicle: other): 157 % of control
- T/C (dose: 5.0 mg/kg/injection, schedule: Q01DX009 (ip), vehicle: other): 152 % of control
- T/C (dose: 10.0 mg/kg/injection, schedule: Q01DX009 (ip), vehicle: other): 158 % of control and 172 % of control
- T/C (dose: 20.0 mg/kg/injection, schedule: Q01DX009 (ip), vehicle: other): 170 % of control
- T/C (dose: 40.0 mg/kg/injection, schedule: Q01DX009 (ip), vehicle: other): 166 % of control

Structure (SMILES): Cc1ccc2c(O)c3c(cc2c1)C(=O)c1c2c(cc(O)c1C3=O)C1(C)OC(O2)C(O)C(N(C)C)C1O (stereo not drawn)
- T/C (dose: 1.6 mg/kg/injection, schedule: Q01DX009 (ip), vehicle: other): 97 % of control
- T/C (dose: 3.13 mg/kg/injection, schedule: Q01DX009 (ip), vehicle: other): 98 % of control
- T/C (dose: 6.25 mg/kg/injection, schedule: Q01DX009 (ip), vehicle: other): 87 % of control
- T/C (dose: 12.5 mg/kg/injection, schedule: Q01DX009 (ip), vehicle: other): 116 % of control
- T/C (dose: 25.0 mg/kg/injection, schedule: Q01DX009 (ip), vehicle: other): 97 % of control

Structure (SMILES): CCOC(=O)c1ccc(N2C(=O)C(Cl)(c3ccccc3)C2c2ccco2)cc1 (stereo not drawn)
- T/C [1]: 100 % of control
- T/C [10]: 95 % of control
- T/C [11]: 94 % of control

Structure (SMILES): Cc1oc(N)c(C(N)=O)c1C
- T/C (dose: 100.0 mg/kg/injection, schedule: Q01DX009 (ip), vehicle: saline sonified): 115 % of control
- T/C (dose: 200.0 mg/kg/injection, schedule: Q01DX009 (ip), vehicle: saline sonified): 110 % of control
- T/C (dose: 400.0 mg/kg/injection, schedule: Q01DX009 (ip), vehicle: saline sonified): 115 % of control

Structure (SMILES): CC(=O)c1cc(C)ccc1S(C)=O (stereo not drawn)
- T/C (dose: 50.0 mg/kg/injection, schedule: Q01DX005 (ip), vehicle: acetone): 99 % of control
- T/C (dose: 100.0 mg/kg/injection, schedule: Q01DX005 (ip), vehicle: acetone): 100 % of control
- T/C (dose: 200.0 mg/kg/injection, schedule: Q01DX005 (ip), vehicle: acetone): 100 % of control

Structure (SMILES): CC(=O)[C@H]1CC[C@H]2[C@@H]3C[C@H](C)C4=CC(=O)CC[C@]4(C)[C@@]3(F)[C@@H](O)C[C@]12C
- T/C [2]: 95 % of control
- T/C [3]: 87 % of control
- T/C (dose: 400.0 mg/kg/injection, schedule: Q04DX003 (ip), vehicle: saline with Tween-80): 100 % of control

Structure (SMILES): O=C1CSC=C(c2ccccc2)O1
- T/C (dose: 12.5 mg/kg/injection, schedule: Q01DX009 (ip), vehicle: saline with Tween-80): 108 % of control
- T/C (dose: 25.0 mg/kg/injection, schedule: Q01DX009 (ip), vehicle: saline with Tween-80): 110 % of control
- T/C [12]: 109 % of control
- T/C [13]: 104 % of control

Structure (SMILES): COC(=O)C1(CC(=O)c2ccc(Cl)cc2)NC(=S)NC(=O)C1C#N (stereo not drawn)
- T/C [1]: 99 % of control
- T/C [10]: 98 % of control
- T/C [11]: 106 % of control

Structure (SMILES): O=C1CC(CO)CC2c3[nH]c4ccccc4c3CCN12 (stereo not drawn)
- T/C (dose: 17.5 mg/kg/injection, schedule: Q01DX005 (ip), vehicle: Klucel (hydroxypropylcellulose) (HPC)): 108 % of control
- T/C (dose: 35.0 mg/kg/injection, schedule: Q01DX005 (ip), vehicle: Klucel (hydroxypropylcellulose) (HPC)): 91 % of control
- T/C (dose: 70.0 mg/kg/injection, schedule: Q01DX005 (ip), vehicle: Klucel (hydroxypropylcellulose) (HPC)): 97 % of control

Structure (SMILES): O=c1cccccc1[O][Sn]([Cl])([Cl])[O]c1cccccc1=O
- T/C (dose: 25.0 mg/kg/injection, schedule: Q01DX001 (ip), vehicle: Klucel (hydroxypropylcellulose) (HPC)): 97 % of control
- T/C (dose: 50.0 mg/kg/injection, schedule: Q01DX001 (ip), vehicle: Klucel (hydroxypropylcellulose) (HPC)): 99 % of control
- T/C (dose: 100.0 mg/kg/injection, schedule: Q01DX001 (ip), vehicle: Klucel (hydroxypropylcellulose) (HPC)): 99 % of control

Structure (SMILES): CNC(=O)c1n[nH]c(=S)[nH]c1=O
- T/C [7]: 111 % of control
- T/C (dose: 50.0 mg/kg/injection, schedule: Q01DX005 (ip), vehicle: saline): 100 % of control
- T/C [8]: 104 % of control
- T/C (dose: 100.0 mg/kg/injection, schedule: Q01DX005 (ip), vehicle: saline): 101 % of control
- T/C [9]: 101 % of control
- T/C (dose: 200.0 mg/kg/injection, schedule: Q01DX005 (ip), vehicle: saline): 101 % of control

Structure (SMILES): C[C@]12C=CC(=O)C=C1CC[C@@H]1[C@@H]2CC[C@@]2(C)[C@H]1CC[C@]2(C)O
- T/C (dose: 50.0 mg/kg/injection, schedule: Q01DX005 (ip), vehicle: saline with Tween-80): 97 % of control
- T/C (dose: 100.0 mg/kg/injection, schedule: Q01DX005 (ip), vehicle: saline with Tween-80): 95 % of control
- T/C (dose: 100.0 mg/kg/injection, schedule: Q01DX009 (ip), vehicle: Klucel (hydroxypropylcellulose) (HPC)): 110 % of control
- T/C (dose: 200.0 mg/kg/injection, schedule: Q01DX009 (ip), vehicle: Klucel (hydroxypropylcellulose) (HPC)): 90 % of control

Structure (SMILES): O=NN(CCCl)C(=O)Nc1ccc(Br)cn1
- T/C (dose: 50.0 mg/kg/injection, schedule: Q04DX003 (ip), vehicle: saline with Tween-80): 100 % of control
- T/C [13]: 150 % of control
- T/C [2]: 100 % of control
- T/C [14]: 150 % of control
- T/C [3]: 118 % of control

Structure (SMILES): COC1C(=O)OC(=O)C1OC (stereo not drawn)
- T/C [4]: 109 % of control and 117 % of control
- T/C [5]: 102 % of control and 117 % of control
- T/C [6]: 100 % of control and 109 % of control and 90 % of control

Structure (SMILES): Cc1cc([N+](=O)[O-])c(C)c(Br)c1C
- T/C [12]: 90 % of control
- T/C [13]: 92 % of control
- T/C [14]: 99 % of control

Structure (SMILES): C=C1C(=O)OC2/C=C(/C)C3(O)OC(C)(CC(OC(=O)C(C)C)C12)CC3OC(C)=O (stereo not drawn)
- T/C (dose: 25.0 mg/kg/injection, schedule: Q01DX009 (ip), vehicle: Klucel (hydroxypropylcellulose) (HPC)): 110 % of control
- T/C (dose: 50.0 mg/kg/injection, schedule: Q01DX009 (ip), vehicle: Klucel (hydroxypropylcellulose) (HPC)): 116 % of control
